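96-well plates; 48 h exposure; 5 concentrations. Endpoints by linear interpolation between flanking doses. Not reached: highest tested concentration assigned. GI50: concentration for 50% inhibition of growth.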 Calls of active or inactive are those of the source. Rule as the data show it: active = GI50 up to about 1.1 µM and inactive = higher.
Key:
Test in all cases: inhibition of tumour cell growth, NCI panel, 48 h
786-0 = test system: 786-0
A498 = test system: A498
A549 = test system: A549
CAKI-1 = test system: CAKI-1
COLO 205 = test system: COLO 205
HCC 2998 = test system: HCC 2998
K562 = test system: K562
M14 = test system: M14
MCF7 = test system: MCF7
MDA-MB-435 = test system: MDA-MB-435
MDA-N = test system: MDA-N
Malme-3M = test system: Malme-3M
NCI-H226 = test system: NCI-H226
OVCAR-5 = test system: OVCAR-5
SF-268 = test system: SF-268
SF-539 = test system: SF-539
SK-MEL-5 = test system: SK-MEL-5
SK-OV-3 = test system: SK-OV-3
SR = test system: SR
T47D = test system: T47D

Measured: GI50

COc1ccc2oc(=O)c(-c3nc4ccccc4o3)cc2c1
inactive: 786-0 > 100 µM | A498 67.9 µM | A549 > 100 µM | CAKI-1 > 100 µM | COLO 205 81.7 µM | HCC 2998 55 µM | K562 69.5 µM | M14 > 100 µM | MCF7 32.7 µM | MDA-MB-435 16.7 µM | MDA-N 29.1 µM | Malme-3M > 100 µM | NCI-H226 > 100 µM | OVCAR-5 > 100 µM | SF-268 > 100 µM | SF-539 > 100 µM | SK-MEL-5 39.1 µM | SK-OV-3 > 100 µM | SR 5.25 µM | T47D 58.2 µM

COC(=O)c1c(C#C[Si](C)(C)C)c(C#C[Si](C)(C)C)c(C#C[Si](C)(C)C)c(C#C[Si](C)(C)C)c1C(=O)OC
inactive: 786-0 > 100 µM | A498 > 100 µM | A549 > 100 µM | CAKI-1 > 100 µM | COLO 205 > 100 µM | HCC 2998 > 100 µM | K562 > 100 µM | M14 > 100 µM | MCF7 > 100 µM | MDA-MB-435 > 100 µM | MDA-N > 100 µM | Malme-3M > 100 µM | NCI-H226 > 100 µM | OVCAR-5 > 100 µM | SF-268 > 100 µM | SF-539 > 100 µM | SK-MEL-5 > 100 µM | SK-OV-3 > 100 µM | SR > 100 µM | T47D > 100 µM

Cn1c(-c2cccs2)cc(-c2ccsc2)c1-c1cccs1
inactive: 786-0 > 100 µM | A498 > 100 µM | A549 > 100 µM | CAKI-1 > 100 µM | COLO 205 17.3 µM | HCC 2998 > 100 µM | K562 75.7 µM | M14 92.3 µM | MCF7 5.97 µM | MDA-MB-435 57.4 µM | MDA-N 55.3 µM | Malme-3M > 100 µM | NCI-H226 > 100 µM | OVCAR-5 > 100 µM | SF-268 > 100 µM | SF-539 > 100 µM | SK-MEL-5 > 10 µM | SK-OV-3 > 100 µM | SR > 100 µM | T47D 3.04 µM

Cc1[nH]c(=O)nc(N/N=C/c2ccc(Cl)cc2)c1C(=O)Nc1ccc(Cl)cc1
inactive: 786-0 19.4 µM | A498 32.6 µM | A549 27 µM | CAKI-1 53.5 µM | COLO 205 25.6 µM | HCC 2998 > 100 µM | K562 22.9 µM | M14 8.07 µM | MCF7 > 65.5 µM | MDA-MB-435 39.4 µM | MDA-N 31.6 µM | Malme-3M 16.9 µM | NCI-H226 > 100 µM | OVCAR-5 82.4 µM | SF-268 41.8 µM | SF-539 21.2 µM | SK-MEL-5 18 µM | SK-OV-3 12.2 µM | SR 44.3 µM | T47D 13.7 µM

COc1cc(S(=O)(=O)Nc2ccc(-c3csc(N4C(=O)C(Cl)C4c4cccs4)n3)cc2)ccc1Cl (stereo not given)
inactive: 786-0 25.8 µM | A498 > 100 µM | A549 > 100 µM | CAKI-1 > 100 µM | COLO 205 31.7 µM | HCC 2998 50.5 µM | K562 31.8 µM | M14 > 100 µM | MCF7 29.5 µM | MDA-MB-435 72.9 µM | MDA-N 65 µM | Malme-3M > 100 µM | NCI-H226 46 µM | OVCAR-5 > 100 µM | SF-268 39 µM | SF-539 32.8 µM | SK-MEL-5 93.8 µM | SK-OV-3 > 100 µM | SR 5.32 µM | T47D 54.6 µM

CC(CO)CCNc1ncnc2c1ncn2CCC(=O)OC(C)(C)C (stereo not given)
inactive: 786-0 > 100 µM | A498 > 100 µM | A549 > 100 µM | CAKI-1 > 100 µM | COLO 205 > 100 µM | HCC 2998 > 100 µM | K562 > 100 µM | M14 > 100 µM | MCF7 > 100 µM | MDA-MB-435 > 100 µM | MDA-N > 100 µM | Malme-3M > 100 µM | NCI-H226 > 100 µM | OVCAR-5 > 100 µM | SF-268 > 100 µM | SF-539 > 100 µM | SK-MEL-5 > 100 µM | SK-OV-3 > 100 µM | SR > 100 µM | T47D > 100 µM

Cc1ccc2nc3c(C)c(Cl)c(=O)cc-3sc2c1
inactive: 786-0 49.7 µM | A498 40.2 µM | A549 16.7 µM | CAKI-1 28.2 µM | COLO 205 29.9 µM | HCC 2998 40.3 µM | K562 3.65 µM | M14 15.2 µM | MCF7 17.6 µM | MDA-MB-435 18.5 µM | MDA-N 16.9 µM | Malme-3M > 45.7 µM | NCI-H226 5.06 µM | OVCAR-5 34.3 µM | SF-268 26.8 µM | SF-539 13.1 µM | SK-MEL-5 13.6 µM | SK-OV-3 > 100 µM | SR 5.86 µM | T47D 58.1 µM

Cc1nc2c(nc1C)-c1c(c3c(n1Cc1ccccc1)C(=O)CCC3)C(=O)C2=O
inactive: 786-0 3.42 µM | A498 18.8 µM | A549 3.93 µM | CAKI-1 2.15 µM | COLO 205 30.5 µM | HCC 2998 2.86 µM | K562 2.96 µM | M14 4.42 µM | MCF7 2.29 µM | MDA-MB-435 2.31 µM | MDA-N 2.21 µM | Malme-3M 3.35 µM | NCI-H226 21.4 µM | OVCAR-5 3.74 µM | SF-268 2.21 µM | SF-539 2.33 µM | SK-MEL-5 6.34 µM | SK-OV-3 18.9 µM | SR 2.1 µM | T47D 4.06 µM

CCOC(=O)Cn1c(=O)c2nc(SC)sc2n(-c2ccc(C)cc2)c1=S
inactive: 786-0 18.1 µM | A498 46.8 µM | A549 > 60.4 µM | CAKI-1 > 100 µM | COLO 205 > 100 µM | HCC 2998 > 56.9 µM | K562 > 100 µM | M14 > 61.7 µM | MCF7 > 100 µM | MDA-MB-435 99.5 µM | MDA-N > 100 µM | Malme-3M 40.4 µM | NCI-H226 23.8 µM | OVCAR-5 > 100 µM | SF-268 30.1 µM | SF-539 36.1 µM | SK-MEL-5 > 100 µM | SK-OV-3 45.8 µM | SR > 100 µM | T47D > 87.1 µM

C=C1C(OC2O[C@@H]3O[C@@]4(C)CC[C@H]5[C@H](C)CC[C@@H](C2=C)[C@@]35O4)O[C@@H]2O[C@@]3(C)CC[C@H]4[C@H](C)CC[C@@H]1[C@@]24O3 (stereo not given in full)
inactive: 786-0 > 50 µM | A498 > 50 µM | A549 > 50 µM | CAKI-1 > 50 µM | COLO 205 > 50 µM | HCC 2998 > 50 µM | K562 > 50 µM | M14 > 50 µM | MCF7 > 50 µM | MDA-MB-435 > 50 µM | MDA-N > 50 µM | Malme-3M > 50 µM | NCI-H226 > 50 µM | OVCAR-5 > 50 µM | SF-268 > 50 µM | SF-539 > 50 µM | SK-MEL-5 > 50 µM | SK-OV-3 > 50 µM | SR > 50 µM | T47D > 50 µM

From ChEMBL document CHEMBL1201862, “PubChem BioAssay data set” (2004)
